Patent US20250288553A1, “Antimicrobial Compositions and Uses for Treatment of Clostridioides difficile, Mycobacterium tuberculosis, and Enterococcus faecalis Infection” (priority 2022, published 2025)
pIC50: −log10 of the molar value. ≈ marks a conversion by molar mass, not a printed value. Where “and” joins values, the source holds several entries; their conditions need not be identical. Equal entries are not always repeated. Where two headings read alike, the source gives them in different places.

How the values were obtained:
[1] = test system: HepG2 (human liver carcinoma) cell line; assay: Cytotoxicity assay HepG2
[2] = Cytotoxicity assay HepG2; conditions: human
[3] = test system: Clostridioides difficile NAP1; assay: MIC against C. difficile NAP1, modified broth microdilution; conditions: for MIC: Clostridioides difficile, NAP1, 48 h, read-out: MIC C. difficile, NAP1, modified broth microdilution, 48 h, anaerobic; for MIC C. difficile: NAP1, modified broth microdilution, 48 h, anaerobic
[4] = test system: Mycobacterium tuberculosis H37Ra ATCC 25177; assay: MIC against Mtb H37Ra, resazurin microtiter assay (REMA); format: cell-based; conditions: for MIC: Mycobacterium tuberculosis, 336 h
[5] = test system: replicating Mtb-lux (Mycobacterium tuberculosis CDC1551 with pMV306hsp+LuxG13); format: cell-based
[6] = test system: dormant Mtb-lux (Mycobacterium tuberculosis CDC1551 with pMV306hsp+LuxG13); format: cell-based; conditions: for R/D (MICR/MICD, Mtb-lux): ratio replicating MIC to dormant MIC
[7] = test system: Enterococcus faecalis ATCC 29212; assay: MIC against E. faecalis, REMA; conditions: for MIC E. faecalis: REMA, visual, 24 h
[8] = test system: TcdA production in C. difficile NAP1; assay: Toxin analysis: extracellular TcdA of C. difficile NAP1 at sub-MICs, western blot; format: cell-based, Clostridioides difficile; design: Concentration at which TcdA was undetectable: unit not given here; conditions: for Effect on TcdA toxin production: NAP1 challenged with 0.5×, 0.25×, 0.125× MIC, 48 h, TcdA normalized to total protein
Protocol: After a 48 h incubation of NAP1 challenged with several dilutions of each compound, extracellular toxin in spent media derived from triplicate cultures was assessed with western blots using a monoclonal antibody against TcdA. Semi-quantitative analysis of toxin levels was performed via densitometry of TcdA band intensity with respect to total protein as measured by the Bradford assay. Semi-quantitative plots are shown below each representative blot. (a) Toxin production in BHIS (NAP1) and BHIS with 5% DMSO (vehicle). (b) Toxin production from cultures challenged with sub-MICs of fidaxomicin, (c) vancomycin, and (d-j) (+)-puupehenone and selected derivatives. Data points represent the means of adjusted toxin levels derived from triplicate cultures, while error bars represent standard deviations. Statistical analysis was performed in GraphPad Prism 8 using unpaired t-tests. *P<0.05; **P<0.01.
To account for changes in biomass, a semi-quantitative analysis of TcdA production was performed by normalizing the target bands from representative western blots to the amount of total protein in each sample.
Toxin analysis. Toxin production was determined by analyzing the amount of extracellular toxin in the cultures from the ASTs described above. At 48 h, total protein of each culture was determined with the Bradford assay using bovine serum albumin (BSA) as a standard.^53 Cultures were then centrifuged at 5,000×g for 5 minutes to clear the supernatants which were separately collected and frozen at −20° C. After thawing at room temperature, cell-free supernatants were mixed 1:1 with 2× Laemmli buffer and incubated in a sand bath at 100° C. for 5 minutes. Twenty microliters of denatured samples were loaded onto 7.5% Tris-glycine gels and electrophoresed at 200 V for 1 h. After electrophoresis, samples were transferred to polyvinylidene difluoride membranes at 4° C. overnight at 30 V. Membranes were incubated in a blocking buffer (20 mM Tris-HCl, 150 mM NaCl, 0.01 mM ethylenediaminetetraacetic acid, 0.1% Tween 20, 1% BSA, [pH 7.5]) for 1 h at room temperature. TcdA was detected with a monoclonal mouse anti-TcdA antibody (PCG4.1, Novus Biologicals) and a rabbit anti-mouse antibody conjugated with alkaline phosphatase. Blots were visualized with a ChemiDoc XRS+ imaging system (Bio-Rad).
Semi-quantitative analysis of TcdA was performed using Image Lab 6.0 software (Bio-Rad). Briefly, after subtracting background noise, peaks corresponding to the target band were selected with the software's Lane Profile tool. The density of each peak generated a value (arbitrary units) that was normalized to the total protein amount of each respective sample. […] These losses of activity prevented us from performing statistical analysis from multiple experiments, as the sub-MICs were not always the same. Since there were no changes to the methodology described, several other reasons could have accounted for decreased activity, such as compound stability, freeze-thaw, and adherence to plastic. Nevertheless, the toxin results were reproducible, irrespective of the exact sub-MICs on different days.

[9] = test system: J774A.1 (murine macrophage-like) cell line; assay: Cytotoxicity assay J774A.1; format: cell-based
Protocol: (§1) To evaluate the selectivity of the top six compounds from the Mtb-lux activity screen (Table 2), cytotoxicity for two different mammalian cell lines was determined. The IC50 was calculated for each compound against J774A.1 and HepG2 cell lines. The selectivity index (SI) for both replicating and dormant conditions was then calculated by taking the IC50 and dividing it by the corresponding MIC (SIR=IC50/MICR, SID=IC50/MICD)^40. Consistent with the experience, the J774 macrophage cell line was more sensitive to all compounds tested. […] Based on these observations, this triacetate protected puupehenone represents a promising candidate for further optimization.
(§2) Cytotoxicity assay: Cytotoxicity was assessed using J774A.1 (murine macrophage-like) and HepG2 (human liver carcinoma) cell lines using 2-fold dilution of the compounds as described previously^42, 43. IC50 values were determined using nonlinear regression fitting of the databy GraphPad Prism. The selectivity Index (SI) was calculated as IC50/MIC.

[10] = Cytotoxicity assay J774A.1; format: cell-based, murine; conditions: mouse, J774A.1 macrophage-like cells; J774A.1 cells; read-out: Cytotoxicity (IC50) J774
Protocol: as §1, §2

[11] = test system: Bacillus subtilis ATCC 23857; assay: MIC against B. subtilis, REMA; conditions: for MIC B. subtilis: REMA, visual, 24 h
[12] = test system: Staphylococcus aureus ATCC 25923; assay: MIC against S. aureus, REMA; conditions: visual, 24 h
[13] = read-out: MIC Mtb H37Ra, determined visually by REMA assay, 14-day incubation
[14] = determined visually by REMA assay, 14-day incubation, read-out: MIC Mtb H37Ra

| SMILES | SI (SID) HepG2 [1] | SI (SIR) HepG2 [1] | pIC50 [2] | MIC C. difficile [3] | MICR (Mtb-lux) [5] [µg/mL] | MICD (Mtb-lux) [6] | SI (SID) J774 [9] | SI (SIR) J774 [9] | pIC50 [10] | R/D (MICR/MICD, Mtb-lux) [6] | also measured |
| --- | --- | --- | --- | --- | --- | --- | --- | --- | --- | --- | --- |
| CO[C@@H]1c2cc(OC(=O)C(C)(C)C)c(O)cc2O[C@@]2(C)CC[C@H]3C(C)(C)CCC[C@]3(C)[C@@H]12 [Compound 19, 15-α-methoxypuupehenol monopivalate] | > 133.3 | > 15.7 | < 3.70 | 4.0 µg/mL (≈ 9 µM) | 12.7 | 1.5 µg/mL | 37.6 | 4.4 | 4.25 |  | MIC [3]: 2 to 4 µg/mL (≈ 4.5 to 9 µM); MIC [4, 13]: 44.4 µg/mL (≈ 99.9 µM); MIC ([7]; Enterococcus faecalis, ATCC29212, 24 h, read-out: MIC E. faecalis): 22.2 µg/mL (≈ 50 µM); Effect on TcdA toxin production [8]: did not appear to substantially change toxin production; MIC ([11]; Bacillus subtilis, ATCC23857, 24 h, read-out: MIC B. subtilis): 22.2 µg/mL (≈ 50 µM) |
| CC1(C)CCCC2(C)C1CCC(C)(O)C2Cc1ccc(O)cc1O (stereo not shown) [Compound 36] |  |  |  | 8.0 µg/mL (≈ 24.1 µM) |  |  |  |  |  |  | MIC S. aureus [12]: 16.6 µg/mL (≈ 49.9 µM); MIC E. faecalis [7]: 16.2 µg/mL (≈ 48.7 µM); Effect on TcdA toxin production [8]: did not appear to substantially change toxin production; MIC B. subtilis [11]: 8.2 µg/mL and 8.3 µg/mL |
| CC(=O)Oc1cc2c(cc1OC(C)=O)[C@@H](OC(C)=O)[C@@H]1[C@@]3(C)CCCC(C)(C)[C@@H]3CC[C@]1(C)O2 [Compound 20, 15-α-acetoxypuupehenol diacetate] | > 142.3 | > 33.3 | < 3.70 | 2.0 µg/mL | 6.0 | 1.4 µg/mL | > 142.3 | > 33.3 | < 3.70 | 4.3 | Cytotoxicity (IC50) HepG2 ([1]; HepG2 cells): no cytotoxicity; MIC [3]: 2 to 4 µg/mL; MIC [4, 13]: 11.8 µg/mL; Effect on TcdA toxin production [8]: decreased the amount of toxin in a similar concentration-dependent manner; Cytotoxicity (IC50) J774 ([9]; J774A.1 cells): no cytotoxicity |
| CCC(=O)Oc1cc2c(cc1OC(=O)CC)[C@@H](OC)[C@@H]1[C@@]3(C)CCCC(C)(C)[C@@H]3CC[C@]1(C)O2 [Compound 16] | > 117.6 | > 22.5 | < 3.70 |  | 8.9 | 1.7 µg/mL | 35.7 | 6.8 | 4.22 | 5.2 | MIC [4, 14]: 23.6 µg/mL (≈ 49.9 µM) |
| CC1(C)CCCC2(C)C1CCC(C)(O)C2Cc1ccc(O)c(O)c1 (stereo not shown) [Compound 38] |  |  |  | did not exhibit any activity | 58.0 | 42.0 µg/mL |  |  |  | 1.4 | MIC S. aureus [12]: did not exhibit any activity; MIC E. faecalis [7]: did not exhibit any activity; MIC B. subtilis [11]: did not exhibit any activity |
| CCC(=O)Oc1cc2c(cc1OC(=O)CC)[C@@H](OC(=O)CC)[C@@H]1[C@@]3(C)CCCC(C)(C)[C@@H]3CC[C@]1(C)O2 [Compound 21] | 64.2 | 22.9 | 4.19 |  | 2.8 | 1.0 µg/mL and 1 µg/mL | 26.4 | 9.4 | 4.58 | 2.8 | MIC [4, 13]: 12.9 µg/mL (≈ 25.1 µM); MIC Mtb H37Ra ([4]; determined visually by REMA assay, 14-day incubation): 12.85 µg/mL (≈ 25 µM) |
| CO[C@@H]1c2cc(OC(=O)C(C)C)c(OC(=O)C(C)C)cc2O[C@@]2(C)CC[C@H]3C(C)(C)CCC[C@]3(C)[C@@H]12 [Compound 17] |  |  |  |  | 8.6 | 10.1 µg/mL |  |  |  | 0.9 | MIC [4, 14]: 25 µg/mL (≈ 49.9 µM) |
| CC1(C)CCC[C@]2(C)[C@H]3C=C4C=C(O)C(=O)C=C4O[C@@]3(C)CC[C@@H]12 [Compound 1, (+)-Puupehenone] | 141.2 | 23.5 | 4.15 | 2.0 µg/mL (≈ 6.09 µM) | 3.0 | 0.5 µg/mL | 46.4 | 7.7 | 4.63 | 6.0 | MIC [3]: 2 to 4 µg/mL (≈ 6.09 to 12.2 µM); MIC [4, 14]: 32.8 µg/mL (≈ 99.9 µM); Concentration at which TcdA was undetectable ([8]; NAP1, 48 h, western blot): 1 |
| CC(C)C(=O)Oc1cc2c(cc1OC(=O)C(C)C)[C@@H](OC(=O)C(C)C)[C@@H]1[C@@]3(C)CCCC(C)(C)[C@@H]3CC[C@]1(C)O2 [Compound 22] |  |  |  |  | 7.6 | 88.8 µg/mL |  |  |  | 0.08 |  |
| CO[C@@H]1c2cc(OC(=O)c3ccccc3)c(OC(=O)c3ccccc3)cc2O[C@@]2(C)CC[C@H]3C(C)(C)CCC[C@]3(C)[C@@H]12 [Compound 18] |  |  |  |  | >200 | 48.3 µg/mL |  |  |  |  |  |
| CN[C@H](CC(C)C)C(=O)N[C@H]1C(=O)N[C@@H](CC(N)=O)C(=O)N[C@H]2C(=O)N[C@H]3C(=O)N[C@H](C(=O)N[C@H](C(=O)O)c4cc(O)cc(O)c4-c4cc3ccc4O)[C@H](O)c3ccc(c(Cl)c3)Oc3cc2cc(c3O[C@@H]2O[C@H](CO)[C@@H](O)[C@H](O)[C@H]2O[C@H]2C[C@](C)(N)[C@H](O)[C@H](C)O2)Oc2ccc(cc2Cl)[C@H]1O [vancomycin, reference compound] |  |  |  |  |  |  |  |  |  |  | Effect on TcdA toxin production [8]: reduced toxin production in a concentration-dependent manner |
| CC1(C)CCC[C@]2(C)[C@@H]1CC[C@]1(C)Oc3ccc(O)cc3C[C@@H]21 [Compound 31, (+)-Chromazonarol] |  |  |  | inactive | 56.5 | 32 µg/mL |  |  |  | 1.8 | MIC Mtb H37Ra [4]: 31.4 µg/mL (≈ 99.9 µM); MIC S. aureus [12]: inactive; MIC E. faecalis [7]: inactive; MIC B. subtilis [11]: 8.6 µg/mL (≈ 27.3 µM) |
| CC1(C)CCC[C@]2(C)[C@@H](Cc3cc(O)ccc3O)[C@](C)(O)CC[C@@H]12 [Compound 41, (+)-Yahazunol] |  |  |  | did not inhibit |  |  |  |  |  |  | MIC S. aureus [12]: 33.2 µg/mL (≈ 99.9 µM); MIC B. subtilis [11]: 33.2 µg/mL (≈ 99.9 µM) |
| CC1(C)CCCC2(C)C1CCC(C)(O)C2Cc1ccc(OCc2ccccc2)cc1 (stereo not shown) [Compound 33] |  |  |  |  | 57.5 | 40.4 µg/mL |  |  |  | 1.4 | MIC Mtb H37Ra [4]: 40.6 µg/mL (≈ 99.8 µM) |
